Patent US7795390B2, “Biological substance nesfatin and its related substances and uses thereof” (Teijin Pharma Limited, priority 2005, dated 2010)

What was measured:
[1] = test system: ICR mice; assay: Intraperitoneal administration of partial peptides of nesfatin-1 / nesfatin-1M30 / NUCB1-M30 to ICR mice, food intake; assay type: in vivo, mouse; conditions: 0-3 hours
Description: Each peptide of nesfatin-1N23, nesfatin-1M30 and nesfatin-1C29 used was a synthetic peptide of which production was referred to Biologica Co., Ltd. and was purified by HPLC to a purity of 95% or higher. Each peptide was prepared in physiological saline so as to contain 50 nmol per 200 μl, which was used as the sample, and as the control sample physiological saline (Vehicle) alone was used. Using a tuberculin syringe equipped with a 25G needle, 200 μl each of the samples was administered once into the abdominal cavity of each mouse (5 animals per group), and the time of administration was immediately before the start (6 p.m.) of the dark period. Mice used were male ICR mice (Nippon SLC) and the housing condition was similar to those in Working Example 18.
Each mouse that received administration was placed in an individual cage, and during 0-3 hours after the administration the weight decreased of the pellet food was measured to determine the amount of food intake. For testing of significant difference, analysis of variance was used.
Each peptide was prepared in physiological saline so as to contain 10 pmol per 100 μl, which was used as the sample for administration, and as the control sample physiological saline (Vehicle) alone was used. The physiological saline as the control and the peptide samples prepared were intraperitoneally administered at 100 μl per mouse (6 animals per group). Mice used were male ICR mice (Nippon SLC) and the housing condition and the experimental condition were similar to those in Working Example 18.
Each of the prepared human nesfatin-1M30 and mouse NUCB1-M30 was prepared in physiological saline so as to contain 10 pmol per 100 μl, which was used as the sample for administration.
The physiological saline as the control and the peptide sample prepared were intraperitoneally administered at 100 μl per mouse (n=6 per group). Mice used were male ICR mice (Nippon SLC) and the housing condition and the experimental condition were similar to those in Working Example 18.

[2] = test system: Wistar rats; assay: Administration of nesfatin-1, nesfatin-2, nesfatin-3, nesfatin-2/3 into the third ventricle, amount of food intake; assay type: in vivo, rat; conditions: for amount of food intake: 25 pmol into the third ventricle before dark period, 0-1 hr and 1-3 hr, vs control
Description: Samples used for intracerebral administration were PBS alone (vehicle group), or nesfatin-1, nesfatin-2, nesfatin-3 or nesfatin-2/3 prepared in Working Example 10 each dissolved in PBS, and 25 pmol was administered per individual into the third ventricle immediately before the dark period. Rats used were Wistar rats (purchased from Nippon SLC) and were housed as in Working Example 6, and among 8-9 week-old male Wistar rats, those individuals weighing 200-250 g were selected and used (N=5). The technique of intraventricular administration and the measurement of the amount of food intake in rats were carried out in a method similar to those in Working Example 6. In the measurement of the amount of food intake, the reduced amount of food at 1 hour after administration (0-1 hr) and 2 hours after administration (1-3 hrs) was determined as food intake.
In the same condition above, 1, 5 or 25 pmol of nesfatin-1 as a sample was administered per rat individual into the third ventricle immediately before the dark period. In this experiment, the amount of food intake was determined at 1 hour after administration (0-1 hr).
The experimental condition was similar to that in Working Example 12, and 5 pmol of nesfatin-1 was administered into the third ventricle of the rat brain immediately before the start of the dark period, the amount decreased of the food (the amount of food intake) during 1 hour immediately after administration (0-1 hr), during 2 hours from 1 hour after the administration (1-3 hr), during 3 hours from 3 hours after the administration (3-6 hr), and during 6 hours from 6 hours after the administration (6-12 hr) was measured as the amount of food intake. As the control group, the amount of food intake by individuals that received physiological saline alone was measured.
The experimental condition was similar to that in Working Example 12, and for a group that received 5 pmol of nesfatin-1 alone into the third ventricle of the rat brain immediately before the start of the dark period and a group that received 5 pmol of nesfatin-1 and 8 μg of anti-nesfatin-1 antibody (nesfatin-1 IgG), the amount of food intake for 1 hour after administration was measured and compared to that for the control group (physiological saline alone was administered). Also, for a group that received only leptin (Rat leptin: R & D Systems, 598-LP-01M) (1 μg) which is known to have an activity of suppressing food intake by intraventricular administration and a group that received leptin and anti-nesfatin-1 antibody, its effect on food intake was also studied.

[3] = 10 pmol per 100 μl ip, partial peptides of nesfatin-1M30, vs saline
[4] = 10 pmol per 100 μl ip, Working Example 23, vs Vehicle
[5] = 50 nmol per 200 μl ip, vs Vehicle

Molecule: N-LysGlnValIleGluValLeuGluThrAsp-C (KQVIEVLETD; listed as Mus musculus) [nesfatin-1M10M]
- amount of food intake [1, 3]: significant effect of suppressing food intake

Molecule: N-ValLeuGluThrAspProHisPheArgGluLysLeuGlnLys-C (VLETDPHFREKLQK; listed as Mus musculus) [nesfatin-1M14]
- amount of food intake [1, 3]: significant effect of suppressing food intake

Molecule: human nesfatin-1M30: human nesfatin-1M30 (SEQ ID NO: 39), chemical synthesis (PDTGLYYDEYLKQVIDVLETDKHFREKLQK; listed as Homo sapiens)
- amount of food intake [1, 4]: significant effect of suppressing food intake

Molecule: mouse NUCB1-M30: site of mouse NUCB1 corresponding to nesfatin-1M30 (SEQ ID NO: 103) (PDTGLYYHRYLQEVINVLETDGHFREKLQA; listed as Mus musculus)
- amount of food intake [1, 4]: significant effect of suppressing food intake

Molecule: nesfatin-1C29: amino acid numbers 54 to 82 of mouse nesfatin-1 (SEQ ID NO: 43) (ADIEEIRSGRLSQELDLVSHKVRTRLDEL; listed as Mus musculus)
- amount of food intake [1, 5]: no significant decrease or enhancement in the amount of food intake

Molecule: nesfatin-1M16: 16-amino acid partial peptide of mouse nesfatin-1M30 (SEQ ID NO: 71) (PDTGLYYDEYLKQVIE; listed as Mus musculus)
- amount of food intake [1, 3]: significant effect of suppressing food intake

Molecule: nesfatin-1M30: 30-amino acid partial peptide of mouse nesfatin-1 (SEQ ID NO: 41) (PDTGLYYDEYLKQVIEVLETDPHFREKLQK; listed as Mus musculus)
- amount of food intake [1, 4]: significant effect of suppressing food intake
- amount of food intake [1, 5]: significant decrease

Molecule: nesfatin-1N23: amino acid numbers 1 to 23 of mouse nesfatin-1 (SEQ ID NO: 42) (VPIDVDKTKVHNTEPVENARIEP; listed as Mus musculus)
- amount of food intake [1, 5]: no significant decrease or enhancement in the amount of food intake

B1: nesfatin-2: 79-residue peptide, amino acid Nos. 109 to 187 of nesfatin (SEQ ID NO: 16) (peptide, listed as Rattus norvegicus)
chain: QEVGRLRMLIKAKLDALQDTGMNHHLLLKQFEHLNHQNPDTFESKDLDMLIKAATADLEQYDRTRHEEFKKYEMMKEHE
- amount of food intake [2]: did not exhibit any significant changes in the amount of food intake

B2: nesfatin-3: 231 residues, amino acid Nos. 190 to 420 of nesfatin (SEQ ID NO: 17), cell-free protein synthesis, Met added (protein, listed as Rattus norvegicus)
chain: EYLKTLSEEKRKEEEAKFAEMKRKHEDHPKVNHPGSKDQLKEVWEETDGLDPNDFDPKTFFKLHDVNNDGFLDEQELEALFTKELDKVYNPQNAEDDMIEMEEERLRMREHVMNEIDNNKDRLVTLEEFLRATEKKEFLEPDSWETLDQQQLFTEEELKEYESIIAIQESELKKKADELQKQKEELQRQHDHLEAQKQEYQQAVQQLEQKKFQQGIAPSGPAGELKFEPHT
modifications: N-terminal Met added
- amount of food intake [2]: did not exhibit any significant changes in the amount of food intake

B3: nesfatin-2/3: portion of the sequence consisting of nesfatin-2 and nesfatin-3 (SEQ ID NO: 47), cell-free protein synthesis (protein, listed as Rattus norvegicus)
chain: QEVGRLRMLIKAKLDALQDTGMNHHLLLKQFEHLNHQNPDTFESKDLDMLIKAATADLEQYDRTRHEEFKKYEMMKEHERREYLKTLSEEKRKEEEAKFAEMKRKHEDHPKVNHPGSKDQLKEVWEETDGLDPNDFDPKTFFKLHDVNNDGFLDEQELEALFTKELDKVYNPQNAEDDMIEMEEERLRMREHVMNEIDNNKDRLVTLEEFLRATEKKEFLEPDSWETLDQQQLFTEEELKEYESIIAIQESELKKKADELQKQKEELQRQHDHLEAQKQEYQQAVQQLEQKKFQQGIAPSGPAGELKFEPHT
- amount of food intake [2]: did not exhibit any significant changes in the amount of food intake

B4: leptin: Rat leptin: R & D Systems, 598-LP-01M; known to suppress food intake by intraventricular administration (protein)
chain: VPIHKVQDDTKTLIKTIVTRINDISHTQSVSARQRVTGLDFIPGLHPILSLSKMDQTLAVYQQILTSLPSQNVLQIAHDLENLRDLLHLLAFSKSCSLPQTRGLQKPESLDGVLEASLYSTEVVALSRLQGSLQDILQQLDLSPEC
- amount of food intake for 1 hour after administration ([2]; given alone into the third ventricle (nesfatin-1 5 pmol; leptin 1 μg), vs saline control): decreased
